Tested on: Mycobacterium smegmatis, mc^2155
Assay: Percent inhibition of growth of liquid culture (optical density vs control without antibiotic) at 2% or 0.02% glucose
Format: cell-based
Conditions: for % inhibition of growth at 0.02% Glucose: 0.02% Glucose (starved)

Question: With `CC[C@@H](CO)NCCN[C@@H](CC)CO` [Ethambutol] as the molecule, how does the “% inhibition of growth at 0.02% Glucose” value (0.15 μgm/ml) read?
Answer: 37%

Question: And the “% inhibition of growth at 2% Glucose” value (0.15 μgm/ml)?
Answer: 44%

Question: What about the “% inhibition of growth at 0.02% Glucose” value (0.31 μgm/ml) of the same molecule?
Answer: 66%

Question: And the “% inhibition of growth at 2% Glucose” value (0.31 μgm/ml)?
Answer: 85%

Question: What about the “% inhibition of growth at 0.02% Glucose” value (0.63 μgm/ml) of the same molecule?
Answer: 68%

Question: And the “% inhibition of growth at 2% Glucose” value (0.63 μgm/ml)?
Answer: 91%

Question: And the “% inhibition of growth at 0.02% Glucose” value (1.25 μgm/ml)?
Answer: 72%

Question: And the “% inhibition of growth at 2% Glucose” value (1.25 μgm/ml)?
Answer: 93%

Question: What does the source list for `NNC(=O)c1ccncc1` [Isoniazide]?
Answer: % inhibition of growth at 0.02% Glucose (0.8 μgm/ml): 12%; % inhibition of growth at 2% Glucose (0.8 μgm/ml): 33%; % inhibition of growth at 0.02% Glucose (1.6 μgm/ml): 30%; % inhibition of growth at 2% Glucose (1.6 μgm/ml): 70%; % inhibition of growth at 0.02% Glucose (3.2 μgm/ml): 70%; % inhibition of growth at 2% Glucose (3.2 μgm/ml): 90%; % inhibition of growth at 0.02% Glucose (6.4 μgm/ml): 78%; % inhibition of growth at 2% Glucose (6.4 μgm/ml): 96%

Question: For `CO[C@H]1/C=C/O[C@@]2(C)Oc3c(C)c(O)c4c(O)c(c(/C=N/N5CCN(C)CC5)c(O)c4c3C2=O)NC(=O)/C(C)=C\C=C\[C@H](C)[C@H](O)[C@@H](C)[C@@H](O)[C@@H](C)[C@H](OC(C)=O)[C@@H]1C` [Rifampicin], which “% inhibition of growth at 0.02% Glucose” value (0.25 μgm/ml) is on record?
Answer: 9%

Question: What about the “% inhibition of growth at 2% Glucose” value (0.25 μgm/ml) of the same molecule?
Answer: 39%

Question: And the “% inhibition of growth at 0.02% Glucose” value (0.5 μgm/ml)?
Answer: 17%

Question: What about the “% inhibition of growth at 2% Glucose” value (0.5 μgm/ml) of the same molecule?
Answer: 58%

Question: What about the “% inhibition of growth at 0.02% Glucose” value (1.0 μgm/ml) of the same molecule?
Answer: 29%

Question: And the “% inhibition of growth at 2% Glucose” value (1.0 μgm/ml)?
Answer: 70%

Question: What about the “% inhibition of growth at 0.02% Glucose” value (2.0 μgm/ml) of the same molecule?
Answer: 68%

Question: What about the “% inhibition of growth at 2% Glucose” value (2.0 μgm/ml) of the same molecule?
Answer: 89%

Question: What about the “reduction of inhibition of growth in the presence of the promoter under a stationary or a starved state” value (stationary or starved state) of the same molecule?
Answer: about 20%

— patent publication US7667022B2, “Promoter for high-throughput screening for inhibitors against Mycobacteria under low carbon conditions” (Council of Scientific & Industrial Research, priority 2003, dated 2010)
